Key:
[1] = system: human T-cell leukemia cell line Jurkat cell; test: Growth of Jurkat cells, live cell count by trypan blue staining; format: cell-based; settings: for growth inhibitory activity of isolated components on Jurkat cells: 10, 25 and 50 μM, cells counted after 24, 48, 72 hours (FIG. 7); for IC50: Homo sapiens, Jurkat, isolated components, FIG. 7, read-out: IC50 in the inhibition of the growth of the Jurkat cells
Experimental: A human T-cell leukemia cell line Jurkat cell was obtained from the Independent Administrative Institution RIKEN BioResource Center (Tsukuba-shi, Ibaraki-ken). The cell was cultured in a RPMI 1640 medium (Wako Pure Chemical Industries, Ltd., Osaka-shi, Osaka-fu) containing 10% fetal bovine serum (Thermo Fisher Scientifics, K.K., MA, USA), 100 U/mL penicillin, and 100 μg/mL streptomycin (both from Life Technologies, Carlsbad, Calif., USA) at 37° C. in an environment of 95% air and 5% CO2.
The Jurkat cells were adjusted to 1×10^5 cells/mL and seeded in a 24-well multi-well plate (Thermo Fisher Scientifics, K.K.) by 500 μL per well. […] At 24, 48, and 72 hours after the sample treatment, the cells were stained with trypan blue (Life Technologies) to count live cells using a hemacytometer.
These components were examined for the growth inhibitory effect on the Jurkat cells. The Jurkat cells were treated with each component at final concentrations of 10, 25, and 50 μM and the number of cells was counted after 24, 48, and 72 hours.

Cyclin A = test: Western blot of Cyclin A protein expression in Jurkat cells in S phase; format: cell-based, human; settings: Phytol(+) vs Phytol(−), n=5, p<0.01 (FIG. 9)
Description: Next, the growth inhibition of the Jurkat cells caused by phytol and lutein was further investigated. As shown in FIG. 6 and FIG. 7, the growth inhibition of the Jurkat cells was caused by the induction of the cell cycle arrest in the S phase during cell division. Thus, it was further investigated how phytol induced the cell cycle arrest in the S phase. Specifically, protein expression of a molecule that controls the S phase of the cell cycle was examined by a Western blot method. […] Results of Cyclin A and β-Actin are shown with a phytol treatment (Phytol(+)) and without a phytol treatment (Phytol(−)). Further, in FIG. 9(b), the result of the Western blot shown in FIG. 9(a) was subjected to background correction using an image analysis software imageJ and then subjected to a densitometry analysis to obtain a ratio of a band density of Cyclin A relative to that of β-Actin. In evaluating data, a value of Phytol(+) was calculated by taking a value of Phytol(−) as 1 and represented as a mean±standard deviation (n=5). Comparison between Phytol(−) and Phytol(+) was tested by a Tukey-Kramer method (p<0.01).

[2] = system: human normal lymphoid cell; test: Effect on growth of human normal lymphoid cell (trypan blue count); format: cell-based; settings: stated with reference to FIG. 8

IC50 [1] [µM]	Structure (SMILES)	growth inhibitory activity of isolated components on Jurkat cells [1]	expression of Cyclin A (band relative to β-Actin) (Cyclin A)	growth inhibitory effect on the normal cell [2]
	CC(C)C/C=C/[C@@H](C)[C@H]1CC[C@H]2[C@@H]3CC=C4C[C@@H](O)CC[C@]4(C)[C@H]3CC[C@]12C [22-dehydrocholesterol]	hardly inhibited the growth of the Jurkat cells		
22.6	CC1=C[C@H](O)CC(C)(C)[C@H]1/C=C/C(C)=C/C=C/C(C)=C/C=C/C=C(C)/C=C/C=C(C)/C=C/C1=C(C)C[C@@H](O)CC1(C)C [lutein]	significant growth inhibitory activity		
12.8	C/C(=C\CO)CCC[C@H](C)CCC[C@H](C)CCCC(C)C [phytol, Phytol]	significant growth inhibitory activity	suppressed	does not exhibit the growth inhibitory effect

From patent US10758583B2, “Processed food and pharmaceutical composition having watermelon sprout-derived substances as main ingredients” (KINKI UNIVERSITY, priority 2016, dated 2020)
